In ChEMBL document CHEMBL4428135, “Varying Chirality Across Nicotinic Acetylcholine Receptor Subtypes: Selective Binding of Quinuclidine Triazole Compounds” (ACS Med Chem Lett, 2016):
Activity calls are given as the source filed them. The calls are words filed in the database; no cut-off is given here.

Assays:
[1] = biological target: T1, Neuronal acetylcholine receptor; alpha4/beta2 (Homo sapiens, UniProt P17787+P43681); assay: Displacement of [3H]epibatidine from human alpha4beta2 nAChR transfected in HEK293 cell membranes after 120 mins by liquid scintillation counting
T1 sequence (P17787 whole entry): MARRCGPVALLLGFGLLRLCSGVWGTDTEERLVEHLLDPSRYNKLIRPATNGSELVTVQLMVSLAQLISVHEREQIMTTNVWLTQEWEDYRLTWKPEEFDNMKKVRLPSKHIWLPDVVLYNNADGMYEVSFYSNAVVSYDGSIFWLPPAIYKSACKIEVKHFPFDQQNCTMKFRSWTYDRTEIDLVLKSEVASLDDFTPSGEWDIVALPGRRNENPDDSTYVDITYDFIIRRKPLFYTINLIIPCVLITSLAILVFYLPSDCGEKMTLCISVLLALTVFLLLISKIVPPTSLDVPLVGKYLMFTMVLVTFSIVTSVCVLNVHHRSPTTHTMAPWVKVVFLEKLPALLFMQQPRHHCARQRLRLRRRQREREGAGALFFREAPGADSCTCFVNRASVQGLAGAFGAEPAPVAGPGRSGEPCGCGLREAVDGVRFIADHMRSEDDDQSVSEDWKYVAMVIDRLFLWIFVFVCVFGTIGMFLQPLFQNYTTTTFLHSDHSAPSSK
T1 sequence (P43681 whole entry): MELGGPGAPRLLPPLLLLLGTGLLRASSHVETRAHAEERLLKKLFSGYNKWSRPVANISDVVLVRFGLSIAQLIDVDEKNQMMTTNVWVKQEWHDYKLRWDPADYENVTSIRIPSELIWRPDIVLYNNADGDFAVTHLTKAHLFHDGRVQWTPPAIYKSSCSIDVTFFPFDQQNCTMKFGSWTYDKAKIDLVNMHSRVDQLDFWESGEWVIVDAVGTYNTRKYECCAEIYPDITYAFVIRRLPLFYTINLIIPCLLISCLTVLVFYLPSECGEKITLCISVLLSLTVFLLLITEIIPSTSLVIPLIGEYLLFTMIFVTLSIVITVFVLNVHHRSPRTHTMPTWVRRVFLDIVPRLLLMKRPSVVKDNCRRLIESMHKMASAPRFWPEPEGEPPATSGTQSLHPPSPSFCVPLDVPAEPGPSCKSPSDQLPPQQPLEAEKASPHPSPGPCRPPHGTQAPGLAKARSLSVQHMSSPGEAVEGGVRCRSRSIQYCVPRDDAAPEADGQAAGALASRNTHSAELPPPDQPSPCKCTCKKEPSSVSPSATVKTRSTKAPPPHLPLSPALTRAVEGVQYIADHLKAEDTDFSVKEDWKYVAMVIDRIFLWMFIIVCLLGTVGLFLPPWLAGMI

[2] = species: Homo sapiens; assay: Selectivity index, reciprocal of ratio of Ki for alpha7 nAChR transfected in human SH-SY5Y cells to KI for human alpha4beta2 nAChR transfected in HEK293 cells; type: cell-based
[3] = species: Homo sapiens; assay: Selectivity index, reciprocal of ratio of Ki for human alpha3beta4 nAChR transfected in HEK293 cells to Ki for human alpha4beta2 nAChR transfected in HEK293 cells; type: cell-based
[4] = biological target: T2, Neuronal acetylcholine receptor subunit alpha-7 (Homo sapiens, UniProt P36544); assay: Displacement of [3H]MLA from human alpha7 nAChR transfected in human SH-SY5Y cell membranes after 120 mins by liquid scintillation counting
T2 sequence (P36544 whole entry): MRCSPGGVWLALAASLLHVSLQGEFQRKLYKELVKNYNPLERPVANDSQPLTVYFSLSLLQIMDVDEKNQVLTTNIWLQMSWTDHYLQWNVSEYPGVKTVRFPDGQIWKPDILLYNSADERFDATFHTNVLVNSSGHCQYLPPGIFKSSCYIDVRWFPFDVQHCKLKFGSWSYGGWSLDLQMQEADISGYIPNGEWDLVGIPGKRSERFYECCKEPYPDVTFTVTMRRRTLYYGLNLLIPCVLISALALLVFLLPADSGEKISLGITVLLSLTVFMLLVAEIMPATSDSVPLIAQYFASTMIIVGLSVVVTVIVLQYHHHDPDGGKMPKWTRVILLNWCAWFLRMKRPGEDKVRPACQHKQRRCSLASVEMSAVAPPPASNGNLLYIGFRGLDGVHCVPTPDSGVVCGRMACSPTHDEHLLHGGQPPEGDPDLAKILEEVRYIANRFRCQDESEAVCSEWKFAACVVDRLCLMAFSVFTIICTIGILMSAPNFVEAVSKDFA

[5] = biological target: T3, Neuronal acetylcholine receptor; alpha3/beta4 (Homo sapiens, UniProt P30926+P32297); assay: Displacement of [3H]epibatidine from human alpha3beta4 nAChR transfected in HEK293 cell membranes after 120 mins by liquid scintillation counting
T3 sequence (P30926 whole entry): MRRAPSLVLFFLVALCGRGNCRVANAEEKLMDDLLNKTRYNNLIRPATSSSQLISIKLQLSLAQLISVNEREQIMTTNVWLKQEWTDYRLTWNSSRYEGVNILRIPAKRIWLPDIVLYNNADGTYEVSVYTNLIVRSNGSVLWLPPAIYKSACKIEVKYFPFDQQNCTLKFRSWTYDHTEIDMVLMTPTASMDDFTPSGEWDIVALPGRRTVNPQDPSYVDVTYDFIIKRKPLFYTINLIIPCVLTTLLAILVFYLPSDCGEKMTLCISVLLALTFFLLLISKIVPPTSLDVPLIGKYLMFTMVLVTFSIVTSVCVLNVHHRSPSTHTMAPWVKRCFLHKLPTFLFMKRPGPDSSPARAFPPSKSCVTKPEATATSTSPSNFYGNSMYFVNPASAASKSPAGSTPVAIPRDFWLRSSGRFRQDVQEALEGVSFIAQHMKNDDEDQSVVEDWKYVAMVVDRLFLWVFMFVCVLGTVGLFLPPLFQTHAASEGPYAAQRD
T3 sequence (P32297 whole entry): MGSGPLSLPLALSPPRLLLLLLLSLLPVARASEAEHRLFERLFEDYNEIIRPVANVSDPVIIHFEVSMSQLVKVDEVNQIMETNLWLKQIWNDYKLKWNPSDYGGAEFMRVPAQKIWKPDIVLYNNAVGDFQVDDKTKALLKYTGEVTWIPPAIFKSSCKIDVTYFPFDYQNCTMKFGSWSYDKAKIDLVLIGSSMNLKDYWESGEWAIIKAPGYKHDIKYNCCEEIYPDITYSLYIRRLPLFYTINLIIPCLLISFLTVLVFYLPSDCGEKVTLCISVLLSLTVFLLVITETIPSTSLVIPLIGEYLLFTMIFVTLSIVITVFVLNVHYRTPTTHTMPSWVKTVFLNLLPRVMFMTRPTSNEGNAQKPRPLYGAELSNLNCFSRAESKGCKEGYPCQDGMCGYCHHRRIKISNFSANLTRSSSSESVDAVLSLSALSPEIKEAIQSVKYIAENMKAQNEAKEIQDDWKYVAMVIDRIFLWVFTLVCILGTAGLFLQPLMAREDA

[6] = species: Homo sapiens; assay: Selectivity index, reciprocal of ratio of Ki for human alpha7 nAChR transfected in human SH-SY5Y cells to Ki for human alpha3beta4 nAChR transfected in HEK293 cells; type: cell-based
[7] = biological target: T3, Neuronal acetylcholine receptor; alpha3/beta4; assay: Antagonist activity at human alpha3beta4 nAChR expressed in HEK293 cells assessed as rediution in epibatidine-induced intracellular calcium levels at 10 uM; type: cell-based
[8] = biological target: T2, Neuronal acetylcholine receptor subunit alpha-7; assay: Agonist activity at human alpha7 nAChR expressed in human SH-SY5Y cells assessed as increase in intracellular calcium levels at 10 uM; type: cell-based
[9] = biological target: T3, Neuronal acetylcholine receptor; alpha3/beta4; assay: Agonist activity at human alpha3beta4 nAChR expressed in HEK293 cells assessed as increase in intracellular calcium levels at 10 uM; type: cell-based
[10] = biological target: Serotonin 3 (5-HT3) receptor (Homo sapiens) (UniProt P46098+A5X5Y0+O95264+Q70Z44+Q8WXA8); assay: Displacement of [3H]BRL-43694 from human recombinant 5-HT3 receptor expressed in CHO cells at 100 nM; type: cell-based
[11] = biological target: Acetylcholine receptor subunit alpha (Homo sapiens) (UniProt P02708); assay: Displacement of [125I]alpha-bungarotoxin from human N-muscle type nAChR alpha1 expressed in human RD cells at 1 uM; type: cell-based
Sequence of Acetylcholine receptor subunit alpha (Homo sapiens) (P02708 whole entry): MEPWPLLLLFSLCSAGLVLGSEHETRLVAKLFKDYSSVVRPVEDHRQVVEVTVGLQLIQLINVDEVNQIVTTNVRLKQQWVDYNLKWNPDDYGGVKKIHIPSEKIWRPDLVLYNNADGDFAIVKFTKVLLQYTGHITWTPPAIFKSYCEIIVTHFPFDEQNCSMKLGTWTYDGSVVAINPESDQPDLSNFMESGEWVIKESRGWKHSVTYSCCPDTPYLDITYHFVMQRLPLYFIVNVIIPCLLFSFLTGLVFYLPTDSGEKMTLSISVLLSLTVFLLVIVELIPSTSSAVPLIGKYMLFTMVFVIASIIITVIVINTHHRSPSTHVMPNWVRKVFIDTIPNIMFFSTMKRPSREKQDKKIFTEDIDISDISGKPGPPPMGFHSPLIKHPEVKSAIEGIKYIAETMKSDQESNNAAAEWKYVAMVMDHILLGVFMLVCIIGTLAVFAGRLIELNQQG

[12] = biological target: T1, Neuronal acetylcholine receptor; alpha4/beta2; assay: Displacement of [3H]-(+/-)-epibatidine from human recombinant alpha4beta2 nAChR expressed in HEKtsA201 cells after 1 hr by CNiFERs binding assay; type: cell-based
[13] = biological target: T2, Neuronal acetylcholine receptor subunit alpha-7; assay: Displacement of [3H]MLA from human recombinant alpha7 nAChR expressed in HEKtsA201 cells after 1 hr by CNiFERs binding assay; type: cell-based
[14] = biological target: Neuronal acetylcholine receptor; alpha4/beta2 (Rattus norvegicus, UniProt P09483+P12390); assay: Displacement of [3H]cytisine from alpha4beta2 nAChR in Sprague-Dawley rat brain membranes after 75 mins by scintillation counting; type: cell membranes
Sequence of Neuronal acetylcholine receptor; alpha4/beta2 (Rattus norvegicus, UniProt P09483+P12390) (P09483 whole entry): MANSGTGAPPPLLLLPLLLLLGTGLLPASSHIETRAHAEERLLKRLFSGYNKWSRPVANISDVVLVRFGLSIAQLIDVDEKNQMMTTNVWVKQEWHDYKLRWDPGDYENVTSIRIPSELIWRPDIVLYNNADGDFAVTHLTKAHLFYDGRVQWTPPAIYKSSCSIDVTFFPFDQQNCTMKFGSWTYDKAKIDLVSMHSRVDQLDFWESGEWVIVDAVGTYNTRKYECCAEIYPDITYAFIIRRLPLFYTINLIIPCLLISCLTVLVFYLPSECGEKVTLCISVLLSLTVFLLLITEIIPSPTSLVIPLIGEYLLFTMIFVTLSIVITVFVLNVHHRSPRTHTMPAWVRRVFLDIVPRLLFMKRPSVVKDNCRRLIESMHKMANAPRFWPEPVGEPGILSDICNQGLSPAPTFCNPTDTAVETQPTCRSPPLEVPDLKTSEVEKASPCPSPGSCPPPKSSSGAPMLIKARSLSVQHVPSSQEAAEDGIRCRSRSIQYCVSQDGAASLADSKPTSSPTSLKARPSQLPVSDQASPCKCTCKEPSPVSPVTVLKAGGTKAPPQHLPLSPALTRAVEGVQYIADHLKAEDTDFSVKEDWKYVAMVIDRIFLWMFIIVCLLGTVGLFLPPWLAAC
Sequence of Neuronal acetylcholine receptor; alpha4/beta2 (Rattus norvegicus, UniProt P09483+P12390) (P12390 whole entry): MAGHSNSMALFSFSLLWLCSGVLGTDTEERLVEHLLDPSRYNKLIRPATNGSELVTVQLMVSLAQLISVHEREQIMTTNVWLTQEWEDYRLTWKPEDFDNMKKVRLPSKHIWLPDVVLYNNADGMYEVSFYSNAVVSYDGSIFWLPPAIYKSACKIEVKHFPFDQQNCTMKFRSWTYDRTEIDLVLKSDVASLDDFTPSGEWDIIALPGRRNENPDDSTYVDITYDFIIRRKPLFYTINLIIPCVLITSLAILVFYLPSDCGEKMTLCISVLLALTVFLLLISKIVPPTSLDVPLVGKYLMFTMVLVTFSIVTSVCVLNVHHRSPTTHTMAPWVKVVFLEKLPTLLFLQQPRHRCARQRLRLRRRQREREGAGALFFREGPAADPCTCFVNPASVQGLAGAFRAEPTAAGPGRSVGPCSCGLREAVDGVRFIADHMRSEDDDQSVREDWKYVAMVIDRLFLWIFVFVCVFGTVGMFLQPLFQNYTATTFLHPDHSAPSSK

[15] = biological target: T2, Neuronal acetylcholine receptor subunit alpha-7; assay: Displacement of [3H]A-585539 from alpha7 nAChR in human cerebral cortex membranes after 75 mins by scintillation counting; type: cell membranes
[16] = biological target: T2, Neuronal acetylcholine receptor subunit alpha-7; assay: Displacement of [3H] epibatidine from alpha7 nAChR (unknown origin) expressed in HEK293 cells; type: cell-based
[17] = biological target: T3, Neuronal acetylcholine receptor; alpha3/beta4; assay: Displacement of [3H] epibatidine from alpha3beta4 nAChR (unknown origin) expressed in HEK293 cells; type: cell-based
[18] = biological target: T1, Neuronal acetylcholine receptor; alpha4/beta2; assay: Displacement of [3H] epibatidine from alpha4beta2 nAChR (unknown origin) expressed in HEK293 cells; type: cell-based
[19] = biological target: Neuronal acetylcholine receptor subunit alpha-7 (Rattus norvegicus, UniProt Q05941); assay: Displacement of [3H]MLA from alpha7 nAChR in rat brain membranes after 2 hrs; type: cell membranes
Sequence of Neuronal acetylcholine receptor subunit alpha-7 (Rattus norvegicus, UniProt Q05941) (Q05941 whole entry): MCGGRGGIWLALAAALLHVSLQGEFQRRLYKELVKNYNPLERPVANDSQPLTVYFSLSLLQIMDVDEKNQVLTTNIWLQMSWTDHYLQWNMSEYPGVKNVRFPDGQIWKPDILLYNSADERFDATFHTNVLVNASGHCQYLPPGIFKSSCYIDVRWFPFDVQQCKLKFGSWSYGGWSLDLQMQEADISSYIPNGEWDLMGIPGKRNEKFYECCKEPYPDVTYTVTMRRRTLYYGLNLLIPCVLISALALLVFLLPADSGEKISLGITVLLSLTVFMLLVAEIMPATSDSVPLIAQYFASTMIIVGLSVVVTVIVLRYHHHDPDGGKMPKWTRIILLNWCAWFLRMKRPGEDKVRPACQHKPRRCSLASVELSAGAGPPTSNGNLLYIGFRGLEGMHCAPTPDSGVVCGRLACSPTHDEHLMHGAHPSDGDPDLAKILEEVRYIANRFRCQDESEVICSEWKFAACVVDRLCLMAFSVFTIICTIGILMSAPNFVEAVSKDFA

[20] = biological target: T2, Neuronal acetylcholine receptor subunit alpha-7; assay: Binding affinity to alpha7 nAChR (unknown origin)
[21] = biological target: T1, Neuronal acetylcholine receptor; alpha4/beta2; assay: Binding affinity to alpha4beta2 nAChR (unknown origin); type: protein-complex assay

Structure (SMILES) | Ki [1] | Ratio [2] | Ratio [3] | Ki [4] | Ki [5] | other results
Oc1ccc(-c2cn([C@H]3CN4CCC3CC4)nn2)cc1 | 7390 nM | 678 | 54 | 10.9 nM | 138 nM | Ratio [6]: 12.7
FCCCOc1cccc(-c2cn(C3CN4CCC3CC4)nn2)c1 (racemic) | 3890 nM | 52 | 88 | 74.6 nM | 44.4 nM | 
Fc1ccc(-c2cn([C@H]3CN4CCC3CC4)nn2)cc1 | 10400 nM | 143 | 10 | 73 nM | 1010 nM | inhibition [7]: Active; Activity [8]: Active; Ratio [6]: 14
Fc1ccc(-c2cn([C@@H]3CN4CCC3CC4)nn2)cc1 | 515 nM | 3 | 167 | 175 nM | 3.09 nM | Activity [9]: Active; inhibition [10]: inactive; Activity [8]: Active; inhibition [11]: 2 to 12%
Fc1ccc(-c2cn(C3CN4CCC3CC4)nn2)cc1 (racemic) | 449 nM | 6.2 | 53 | 72.8 nM | 8.5 nM | 
FCCCOc1cccc(-c2cn([C@@H]3CN4CCC3CC4)nn2)c1 | 1980 nM | 20 | 102 | 96.9 nM | 19.5 nM | 
c1ccc(COc2cccc(-c3cn([C@H]4CN5CCC4CC5)nn3)c2)cc1 | 5060 nM | 225 | 8 | 22.5 nM | 631 nM | Ratio [6]: 28
FCCCOc1cccc(-c2cn([C@H]3CN4CCC3CC4)nn2)c1 | 9010 nM | 145 | 5.5 | 62.3 nM | 1630 nM | Ratio [6]: 26
Oc1ccc(-c2cn(C3CN4CCC3CC4)nn2)cc1 (racemic) | 627 nM | 65 | 182 | 9.61 nM | 3.44 nM | Ki [12]: > 10000 nM; Ki [13]: 81 nM
c1cc2cc(-c3ccc(O[C@H]4CN5CCC4CC5)nn3)ccc2[nH]1 [ABT-107] |  |  |  |  |  | Ki [14]: 4000 nM; Ki [15]: 0.22 nM
Fc1ccc(COc2cccc(-c3cn(C4CN5CCC4CC5)nn3)c2)cc1 (racemic) | 1010 nM | 8 | 73 | 127 nM | 13.9 nM | 
FC(F)(F)c1ccc2c(c1)[C@@H]1CNC[C@H]2C1 |  |  |  |  |  | Ki [16]: > 300 nM; Ki [17]: 21 nM; Ki [18]: 21 nM
Fc1cccc(-c2cn([C@@H]3CN4CCC3CC4)nn2)c1 | 519 nM |  | 231 | 660 nM | 2.25 nM | inhibition [7]: Active; inhibition [10]: inactive; Activity [8]: Active; inhibition [11]: 2 to 12%
O=C(N[C@H]1CN2CCC1CC2)c1c[nH]c2ccccc12 |  |  |  |  |  | Ki [19]: 6 nM
Fc1cccc(-c2cn(C3CN4CCC3CC4)nn2)c1 (racemic) | 748 nM | 5.6 | 143 | 133 nM | 5.24 nM | 
FCCOc1cccc(-c2cn([C@H]3CN4CCC3CC4)nn2)c1 | 7050 nM | 182 | 13 | 38.8 nM | 558 nM | Ratio [6]: 14
c1ccc(COc2cccc(-c3cn([C@@H]4CN5CCC4CC5)nn3)c2)cc1 | 414 nM | 1.5 | 62 | 279 nM | 6.67 nM | inhibition [10]: inactive; inhibition [11]: 2 to 12%
FCCOc1cccc(-c2cn([C@@H]3CN4CCC3CC4)nn2)c1 | 1260 nM | 17 | 107 | 74.9 nM | 11.8 nM | 
FCCOc1cccc(-c2cn(C3CN4CCC3CC4)nn2)c1 (racemic) | 1960 nM | 20 | 94 | 98.7 nM | 20.9 nM | 
Fc1ccc(COc2cccc(-c3cn([C@@H]4CN5CCC4CC5)nn3)c2)cc1 | 537 nM | 3.6 | 75 | 149 nM | 7.17 nM | inhibition [10]: Active; inhibition [11]: 2 to 12%
Fc1cccc(-c2cn([C@H]3CN4CCC3CC4)nn2)c1 | 5200 nM | 44 | 14 | 117 nM | 362 nM | Activity [9]: Active; Activity [8]: Active; Ratio [6]: 3.1
CN1C2CCCC1CC(Nc1ccccc1Br)C2 (configuration not stated) |  |  |  |  |  | Ki [20]: 221 nM; Ki [21]: 476 nM
Oc1ccc(-c2cn([C@@H]3CN4CCC3CC4)nn2)cc1 | 461 nM | 16 | 186 | 29.3 nM | 2.48 nM | 
Fc1ccc(COc2cccc(-c3cn([C@H]4CN5CCC4CC5)nn3)c2)cc1 | 6390 nM | 193 | 5.9 | 33.2 nM | 1090 nM | Ratio [6]: 33
c1ccc(COc2cccc(-c3cn(C4CN5CCC4CC5)nn3)c2)cc1 (racemic) | 668 nM | 7.3 | 88 | 91.3 nM | 7.57 nM | 
